In the METLIN SMRT retention time set (Domingo-Almenara et al. 2019) one finds RP-LC retention time data, which are given here for 78 compounds.

This series can be described thus: gradient 5% acetonitrile 3 min, to 50% in 2 min, to 85% in 15 min, held 3 min, 100 µL/min. The note with it: column: Zorbax Extend-C18 2.1 x 50 mm; eluents: water / acetonitrile, 0.1% formic acid. In outline:
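Values are retention times taken from adduct peaks that software picked and an analyst inspected. The pure standards were run as mixtures of ~100 molecules on HPLC linked to a quadrupole time-of-flight mass spectrometer, in positive and negative ionization mode. A Zorbax Extend-C18 column (2.1 × 50 mm, 1.8 μm) was used at 100 μL/min with water and acetonitrile, each including 0.1% formic acid.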
Take `Cc1noc(/C=C/c2ccc(S(=O)(=O)N3CCOCC3)s2)c1NC(=O)C1CC1`: the RP-LC retention time is 778 s. The value for `COc1ccc(-n2c(=O)c(C(=O)Nc3cc(F)cc(F)c3)c(O)c3cccnc32)cc1` was 1300 s. `Cc1c(-c2nnc(C3CCC3)o2)c(S(=O)(=O)NCc2ccc(Cl)cc2)c(C)n1C` displayed an RP-LC retention time of 1010 s. The value for `CC(=O)N1c2ccc(S(=O)(=O)N3CCCCC3)cc2CC1C(=O)NCCN1CCCCCC1` (stereo not drawn) was 639 s; that for `COC(=O)c1ccc(NC(=O)NCc2noc3ccccc23)cc1` was 824 s. Then `CCOc1ccc(-c2cc3c(=O)n(Cc4nc(-c5ccc(Cl)c(F)c5)no4)ncn3n2)cc1`, with 1270 s.

Turning to `COc1ccc(-c2oc3c(CC=C(C)C)c(O)cc(O)c3c(=O)c2O)cc1`, the RP-LC retention time was found to be 1040 s. The value for `CN1CCN(CCNC(=O)CCCN2C(=O)C(c3ccccc3)Oc3cccnc32)CC1` (stereo not drawn) was 605 s; that for `Cc1ccc(C(=O)Nc2ccc3c(c2)CCC(=O)N3C)s1` was 712 s.

`COc1ccc(N2CC(c3nc(-c4oc5ccc(OC)cc5c4C)no3)CC2=O)cc1` (stereo not drawn) had an RP-LC retention time of 1020 s. Then `Cc1ccc(-n2c(=O)c3c(cc(C)n3C)n(CC(=O)Nc3cc(Cl)ccc3C)c2=O)cc1`, with 952 s; and `Cc1nc(-c2noc(-c3ccccc3)n2)cn1CC(=O)NCc1ccc(Cl)cc1`, with 866 s; and `O=C([C@@H]1C[C@H](F)CN1S(=O)(=O)c1cccc(C(F)(F)F)c1)N1CCCCC1`, with 878 s.

As for `Cc1ccc(CNC(=O)C2(C)CN(S(C)(=O)=O)CC(=O)N2Cc2ccc(C)cc2)cc1` (stereo not drawn), the RP-LC retention time is 899 s. The value for `CC1CCCN(CCCNC(=O)CC2CCN(C(=O)C3CCCCC3)CC2)C1` (stereo not drawn) was 604 s; that for `CCN(CC)S(=O)(=O)c1c(C)nn(C(=O)c2ccccc2OC)c1C` was 951 s. Then `Cc1ccc2c(c1)N(Cc1ccccc1F)N=C(C(=O)N1CCCC1)S2(=O)=O`, with 885 s; and `CCNC(=O)c1ccc2nnc(C3CC3)n2c1`, with 590 s; and `CCSc1nc2ccc(NS(=O)(=O)c3ccc(CC)cc3)cc2s1`, with 1120 s.

In turn, `CCc1noc(-c2cc(=O)n(CC(=O)Nc3ccccc3OC)c3ccccc23)n1` displayed an RP-LC retention time of 962 s. `CON(C)C(=O)C1CN(C(=O)COc2ccccc2F)C1`: the RP-LC retention time came out at 629 s.

For the compound `Cc1cc(CC(=O)N2CC(F)(F)C[C@H]2c2nc(C)no2)on1`, the RP-LC retention time was determined as 732 s. `CN1CCCn2cc(S(=O)(=O)Nc3ccc(F)cc3)cc2C1=O` showed an RP-LC retention time of 670 s. Then `CC(C)NC(=O)CN1C(=O)C2CCCCN2c2ccc(S(=O)(=O)N3CCCCC3)cc21` (stereo not drawn), with 850 s; and `N#Cc1ccsc1NC(=O)C1CCN(S(=O)(=O)c2ccc(Cl)s2)CC1`, with 906 s. Then `CCOCc1nc(C2CCCN2S(=O)(=O)c2cccc3nsnc23)no1` (stereo not drawn), with 836 s; and `Cc1noc(-c2nn(C)c3c2CN(C(=O)c2cccc(Br)c2)CC3)n1`, with 783 s. Compound `Cc1ccn2cc(-c3ccc(NS(=O)(=O)c4cc(C(C)C)ccc4C)cc3)nc2n1` yielded an RP-LC retention time of 745 s. The value for `Cc1nn(-c2ccc(C(=O)NC(C)C)cc2)c2c1C(=O)CC(C)(C)C2` was 775 s; that for `CCCNC(=O)N1CCCC(CCc2nnc(-c3cnccn3)o2)C1` (stereo not drawn) was 647 s.

Consider `CC1CCN(S(=O)(=O)c2cccn(Cc3cc(F)cc(F)c3)c2=O)CC1`, for which the RP-LC retention time was 974 s. Then `CC1CCC2(CC1)NC(=O)N(CC(=O)NCc1ccccc1F)C2=O` (stereo not drawn), with 772 s. For the compound `O=C(CN1CCN(Cc2ccccc2)C(=O)C1=O)N1CCN(c2ccccc2F)CC1`, the RP-LC retention time came to 752 s.

The compound `Cc1ccc(-c2nn3c(N4CCN(c5ccccn5)CC4)cc(C)nc3c2C)cc1` had an RP-LC retention time of 613 s. As for `CCOC(=O)c1c(C)[nH]c(C(=O)N2CCC(CC(=O)NCc3ccc(OC(C)C)cc3)CC2)c1C`, the RP-LC retention time amounted to 866 s.

Compound `CC1=C(c2ccc(Cl)cc2)S(=O)(=O)N=C1N1CCC(C(=O)NC(C)C)CC1` yielded an RP-LC retention time of 779 s. The value for `O=C(c1c(F)cccc1F)N1CCN=C1SCc1cccnc1` was 582 s. `COC(=O)C1CCN(C(=O)c2csc(Nc3ncccn3)n2)CC1` yielded an RP-LC retention time of 644 s. The compound `CN=C(NC#N)Nc1ccc(C2=NNC(=O)CC2C)cc1` (stereo not drawn) registered an RP-LC retention time of 672 s. The value for `CCCNC(=O)C1CCN(c2ccc(SCC(=O)Nc3cc(F)ccc3C)nn2)CC1` was 667 s; that for `CC(C)c1noc(C2(NC(=O)c3ccccc3F)CCCCC2)n1` was 1020 s; that for `CCc1ccc(S(=O)(=O)Nc2cccc(-c3nc4cccnc4s3)c2C)s1` was 942 s. As to `CC(=O)N1CCCSc2ccc(S(=O)(=O)N3CCN(c4cccc(C)c4)C(C)C3)cc21` (stereo not drawn), the RP-LC retention time is 982 s. Then `O=C(Nc1nc(C(=O)NCc2nc(-c3ccccc3)no2)co1)c1ccsc1`, with 707 s; and `Cc1ccc(CN2CCCN(CC(=O)NC(C)CCc3ccccc3)S2(=O)=O)cc1` (stereo not drawn), with 1050 s. Then `CC(=O)c1ccc(NC(=O)c2cc(-c3cccnc3)nc3ccccc23)cc1`, with 732 s; and `CC(C)NC(=O)c1ccc(-c2ccsc2)nc1`, with 736 s; and `O=C(CCCN1C(=O)C2C3C=CC(C3)C2C1=O)N1CCN(c2ccc(F)cc2)CC1` (stereo not drawn), with 800 s. The value for `CCOC(=O)C1CCN(C(=O)c2nnc(-c3ccc(S(=O)(=O)N4CCCC4)cc3)o2)CC1` was 881 s; that for `CCS(=O)(=O)N1CCCc2cc(C(=O)NC(C)(C)C)ccc21` was 826 s; that for `CSc1cccc2sc(N(Cc3ccco3)C(=O)c3ccc(C#N)cc3)nc12` was 1110 s. In turn, `COc1ccc(-c2nnc(-c3ccc(C)c(S(=O)(=O)NCc4cccs4)c3)o2)cc1OC` gave an RP-LC retention time of 917 s. Then `O=S(=O)(c1ccccc1)N1CCc2nc(-c3ccc(F)cc3)ncc2C1`, with 1040 s; and `Cn1cccc1-c1cc2n(n1)CCCN2C(=O)CCC(=O)N1CCc2ccccc2C1`, with 809 s; and `C[C@H]1CN(C(=O)c2ccc3ccccc3n2)C[C@@H]1c1nc(-c2cccnc2)no1`, with 821 s. Then `CC(C)NC(=O)C1CCCN(c2nc3ncn(CC(=O)NC4CCCCC4)c(=O)c3s2)C1` (stereo not drawn), with 666 s; and `O=C(C1CCN(c2ncccc2-c2nc(-c3cccc(Cl)c3)no2)CC1)N1CCOCC1`, with 982 s; and `CN1C(=O)Cc2cc(S(=O)(=O)NCc3ccc4c(c3)CCN4C(=O)c3ccccc3)ccc21`, with 771 s. Consider `Cc1ccc(C)c(N2CCN(CC(O)c3ccc4c(c3)OCO4)CC2)c1` (stereo not drawn), for which the RP-LC retention time came out at 732 s.

Turning to `COC(=O)c1cnn2c(C)c(Cc3ccc(F)cc3)c(C)nc12`, the RP-LC retention time amounted to 845 s. The value for `COc1ccc(-c2noc(Cc3nc(-c4ccc(Br)cc4)cs3)n2)cc1` was 1280 s. The value for `COc1ccc(-c2nnc(-c3ccc(C)c(S(=O)(=O)NC(C)C)c3)o2)cc1OC` was 873 s; that for `CCn1nnc2ccc(-c3noc(Cc4ccccc4C)n3)cc21` was 1030 s; that for `COC(=O)c1ccccc1NC(=O)N1CCN(Cc2nc(-c3cccc(Cl)c3)oc2C)CC1` was 809 s. Then `Cn1c(=O)n(CC(=O)N2CCc3ccccc3C2)c(=O)c2cnc(-c3ccc(Cl)cc3)nc21`, with 1140 s; and `CC12CCC(C1)C(C)(C)C2OC(=O)c1ccccc1C(=O)O` (stereo not drawn), with 1130 s. Regarding `COc1ccccc1N1CCN(c2cc(SCC(=O)Nc3cccc(Cl)c3)ncn2)CC1`, the RP-LC retention time amounted to 1030 s. Then `CCCCN1C(=O)C(NC(=O)c2cccc(OC)c2)(C(F)(F)F)C(C(=O)OC)=C1C` (stereo not drawn), with 988 s.

For the compound `COc1ccc(NC(=O)N2CC(N(Cc3ccncc3)CC(C)C)C2)cc1OC`, the RP-LC retention time was 622 s. Then `O=C(Nc1ccc(Cl)cc1)N1CCC(n2c(C(F)(F)F)nc3cccnc32)CC1`, with 942 s. As to `Cc1cc2nc(C(F)(F)F)c(=O)n(C(C)C(=O)N3CCN(C(=O)c4ccco4)CC3)c2cc1C` (stereo not drawn), the RP-LC retention time was found to be 957 s. The value for `O=C1NC2(CCN(C(=O)c3cc(F)cc(F)c3)CC2)Nc2c(Cl)cccc21` was 760 s; that for `O=C(CCc1nc2ccccc2n(CC(=O)NC2CCCCC2)c1=O)NC1CCCCC1` was 844 s. The value for `CCn1nnc2c(SCC(=O)Nc3cccc(C(F)(F)F)c3)ncnc21` was 866 s. The compound `COc1ccc(N2CCN(c3cc(SCC(=O)Nc4cc(OC)ccc4OC)ncn3)CC2)cc1` yielded an RP-LC retention time of 1030 s. Take `COC(=O)c1cccc(C(=O)Nc2ccc(Cl)cc2F)n1`: the RP-LC retention time turned out to be 996 s. `COc1ccc(-n2ncc3c(=O)n(Cc4nc(-c5ccc(C)cc5)no4)cnc32)cc1` yielded an RP-LC retention time of 1030 s. The value for `Cc1ccc(C)c(CNS(=O)(=O)c2cc(-c3nc(C(C)(C)C)cs3)cs2)c1` was 1360 s.
